The values below come from patent US10343977B2, “Tetrahydro-isohumulone derivatives, methods of making and using” (KINDEX PHARMACEUTICALS, INC., priority 2012, dated 2019).

Where only a bound is given, the exact number is not on record here.

Assay type in all cases: cell-based
The subject of experiment [1] is LPS-mediated RANTES production in THP-1 cells. In words: LPS-mediated RANTES production in THP-1 cells. The conditions noted are these: Homo sapiens; for inhibition at 12.5 µM: 12.5 μM test compound, THP-1 cells, LPS 1 μg/ml, NI = no inhibition. The procedure: (§1) THIAA derivatives synthesized in Examples 1-19 were dissolved in dimethyl sufoxide (DMSO) and stored at −20° C. LPS was purchased from Sigma Chemicals (St. Louis, Miss.).
(§2) The effect of the THIAA derivatives on LPS-mediated MMP-9, IL-1β, ([…], MCP-1, RANTES, and MIP-1α was evaluated in THP-1 cells. Stimulation of THP-1 cells with LPS (1 μg/ml) activated the production of MMP-9, IL-1β, MCP-1, RANTES, and MIP-1α.
(§3) Results are summarized in Table 2, with data represented as % inhibition of inflammatory mediator production.

The subject of experiment [2] is LPS-mediated nitric oxide (NO) production in RAW264.7 cells. Description: LPS-mediated NO production in RAW264.7 murine macrophage model. Conditions: Mus musculus, RAW264.7, 16 h, LPS 1 μg/ml; for inhibition at 12.5 µM: 12.5 μM test compound, NI = no inhibition. The procedure: as §1
(§4) The effect of the THIAA derivatives on LPS-mediated prostaglandin E2 (PGE2) and nitric oxide (NO) production was evaluated in a RAW264.7 murine macrophage model. The RAW 264.7 cell line was purchased from ATCC (Manassas, Va.) and maintained according to their instructions. Cells were grown and subcultured in 96-well plates at a density of 8×10^4 cells per well, and reached 80-90% confluence the next day. THIAA derivatives were added to the cells in serum-free medium at a final concentration of 0.1% DMSO. Following one hour of incubation with the THIAA derivatives, LPS (1 μg/ml) or DMEM medium alone was added to the cells and incubation was continued for 6 hours. Stimulation of RAW 264.7 cells with LPS (1 μg/ml) for 6 hours activated the production of PGE2 and NO. Supernatant media was collected for measurement of PGE2 levels. For NO, incubations were continued overnight. Supernatant media was collected for measurement of NO levels after 16 hours of stimulation. PGE2 levels were measured using assay kits from Assay Designs, (Ann Arbor, Mich.) and NO levels were measured using assay kits from Cayman Chemicals (Ann Harbor, Mich.).
as §3

Experiment [3] relates to LPS-mediated MIP-1α production in THP-1 cells. Description: LPS-mediated MIP-1α production in THP-1 cells. Conditions: Homo sapiens; for inhibition at 12.5 µM: 12.5 μM test compound, THP-1 cells, LPS 1 μg/ml, NI = no inhibition. The procedure:
as §1, §2, §3

In a further experiment the target is T1, PPARγ (Homo sapiens, UniProt P37231).
T1 sequence (P37231 1-505): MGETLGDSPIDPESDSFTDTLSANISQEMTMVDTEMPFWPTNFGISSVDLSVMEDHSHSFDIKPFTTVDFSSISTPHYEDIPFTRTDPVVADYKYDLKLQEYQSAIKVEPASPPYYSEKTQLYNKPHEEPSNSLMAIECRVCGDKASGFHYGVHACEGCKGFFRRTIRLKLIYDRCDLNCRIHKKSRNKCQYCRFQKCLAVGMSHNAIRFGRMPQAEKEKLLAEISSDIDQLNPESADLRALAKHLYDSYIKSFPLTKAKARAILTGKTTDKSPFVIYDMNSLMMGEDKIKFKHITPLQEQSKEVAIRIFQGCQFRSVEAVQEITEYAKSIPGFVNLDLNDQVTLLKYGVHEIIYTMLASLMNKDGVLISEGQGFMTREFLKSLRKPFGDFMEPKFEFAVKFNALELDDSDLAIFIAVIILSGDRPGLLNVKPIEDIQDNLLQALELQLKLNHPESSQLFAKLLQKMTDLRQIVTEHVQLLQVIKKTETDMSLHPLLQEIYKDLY
In words: PPARγ reporter assay (INDIGO Biosciences). Conditions: 20 h, read-out: PPARγ % rosiglitazone (500 nM), 12.5 μM test compound; luciferase reporter cells, 20 hours; activity compared to rosiglitazone. The procedure:
(§5) The functional effect of THIAA derivatives on PPARα and PPARγ activity was evaluated using a PPAR reporter assay (INDIGO Biosciences, Pa.). This assay utilizes non-human mammalian cells engineered to provide constitutive high level expression of PPARα, or PPARγ and containing a luciferase report gene specific to the appropriate PPAR. Following activation by agonist binding, PPAR induces expression of the luciferase reporter gene. Luciferase activity therefore provides a surrogate for measuring PPAR activity in agonist-treated cells.
(§6) 0.1% DMSO was used as a solvent control for each assay. Plates were incubated for 20 hours in a humidified incubator at 37° C. and 5% CO2. After incubation, the cell medium was discarded and the cells were treated with 100 μL of luciferase detection reagent for 15 minutes. Plates were analyzed using a luminometer (Victor2, Perkin Elmer). Average relative light unit (RLU) and standard deviation were measured.
Background: Reporter assays use an easily measured gene product as a stand-in for the process of interest.

The subject of experiment [4] is LPS-mediated inflammatory mediators in RAW264.7 and THP-1 cells. Description: Mean inhibition across all six inflammatory mediators. The conditions noted are these: for inhibition at 12.5 µM: 12.5 μM test compound. The procedure:
as §4, §2, §3
Mean inhibition across all six inflammatory mediators was calculated for each of the THIAA derivatives.

Another experiment has as its target T2, PPARα (Homo sapiens, UniProt Q07869).
T2 sequence (Q07869 1-468): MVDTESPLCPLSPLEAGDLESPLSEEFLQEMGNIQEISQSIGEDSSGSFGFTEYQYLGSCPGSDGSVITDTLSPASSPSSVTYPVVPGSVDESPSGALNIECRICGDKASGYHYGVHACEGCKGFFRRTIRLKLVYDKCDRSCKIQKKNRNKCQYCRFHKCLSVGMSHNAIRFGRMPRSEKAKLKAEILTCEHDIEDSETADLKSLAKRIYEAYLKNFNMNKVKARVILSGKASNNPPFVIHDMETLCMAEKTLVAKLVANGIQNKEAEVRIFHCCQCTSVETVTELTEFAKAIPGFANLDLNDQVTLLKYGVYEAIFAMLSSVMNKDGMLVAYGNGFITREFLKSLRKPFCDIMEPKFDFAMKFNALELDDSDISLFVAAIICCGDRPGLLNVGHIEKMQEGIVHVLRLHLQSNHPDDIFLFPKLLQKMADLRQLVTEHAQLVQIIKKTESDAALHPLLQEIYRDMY
Description: PPARα reporter assay (INDIGO Biosciences). The conditions noted are these: luciferase reporter cells, 20 hours; for Emax at 12.5 µM / PPARα % GW590735 (20.6 nM): 12.5 μM test compound, activity compared to GW590735; for Emax at 12.5 µM: read-out: PPARα % GW590735 (20.6 nM). As to the method: as §5, §6

In experiment [5] the test system is LPS-mediated MCP-1 production in THP-1 cells. Description: LPS-mediated MCP-1 production in THP-1 cells. Conditions: Homo sapiens; for inhibition at 12.5 µM: 12.5 μM test compound, THP-1 cells, LPS 1 μg/ml, NI = no inhibition. As to the method: as §1, §2, §3
The test system of experiment [6] is LPS-mediated prostaglandin E2 (PGE2) production in RAW264.7 cells. In words: LPS-mediated PGE2 production in RAW264.7 murine macrophage model. Conditions: Mus musculus, RAW264.7, 6 h, LPS 1 μg/ml, NI = no inhibition; for inhibition at 12.5 µM: 12.5 μM test compound. As to the method: as §1, §4, §3
Experiment [7] has as its system LPS-mediated IL-6 production in THP-1 cells. Description: LPS-mediated IL-6 production in THP-1 cells. The conditions noted are these: Homo sapiens; for inhibition at 12.5 µM: 12.5 μM test compound, THP-1 cells, LPS 1 μg/ml, NI = no inhibition. The procedure:
as §1, §2, §3

Regarding `CN/C(CC(C)C)=C1\C(=O)[C@H](CCC(C)C)[C@@](O)(C(=O)CCC(C)C)C1=O` [KDT0020, (4R,5R)-4-hydroxy-5-(3-methylbutyl)-2-[3-methyl-1-(methylamino)butylidene]-4-(4-methylpentanoyl)cyclopentane-1,3-dione], the inhibition (as a rule, the percentage by which the read-out fell short of the control) at 12.5 µM is 35% in experiment [1]; less than 20% in experiment [2]; less than 20% in [3]; 46% in [4]; 82% in [5]; 75% in [6]. Also, the inhibition at 12.5 µM in experiment [7] turned out to be 70%. Besides, the Emax at 12.5 µM on PPARγ and on PPARα was less than 5% in each case.
Take `Cc1nc(-c2ccc(C(F)(F)F)cc2)sc1C(=O)NCc1ccc(OC(C)(C)C(=O)O)cc1` [GW590735, reference compound]: on PPARα (GW590735 21-5000 nM), the “PPARα activity (positive control)” value is on record as “increased the activity”.
As for `CC(C)CCC(=O)[C@@]1(OC(=O)OCC(C)C)C(O)=C(C(=O)C(C)C)C(=O)[C@@H]1CCC(C)C` [KDT0037, (1S,5R)-2-hydroxy-5-(3-methylbutyl)-1-(4-methylpentanoyl)-3-(2-methylpropanoyl)-4-oxocyclopent-2-en-1-yl 2-methylpropyl carbonate], the inhibition at 12.5 µM is 83% in [1]; 22% in experiment [3]; 72% in experiment [4]; 98% in experiment [5]; 61% in experiment [7]. At PPARα, the “PPARα % GW590735 (20.6 nM)” value is recorded as “no effect”. Further, the Emax at 12.5 µM at PPARα is less than 5%.
For `CO/N=C(/CC(C)C)C1=C(O)[C@](O)(/C(CCC(C)C)=N/OC)[C@@H](CCC(C)C)C1=O` [KDT0001/2, (4R,5R)-3,4-dihydroxy-2-(N-methoxy-3-methylbutanimidoyl)-4-(N-methoxy-4-methylpentanimidoyl)-5-(3-methylbutyl)cyclopent-2-en-1-one], the inhibition at 12.5 µM in experiment [1] was 45%; in [2] it was less than 0%; in experiment [3], less than 20%; in experiment [4] it was 39%; in experiment [5], 74%; in [6], 55%. Also, in [7], the inhibition at 12.5 µM is 60%. The Emax at 12.5 µM at PPARγ and on PPARα was less than 5% throughout.
In the case of `CC(C)CCC(=O)[C@@]1(OC(=O)C(C)(C)C)C(O)=C(C(=O)CC(C)C)C(=O)[C@@H]1CCC(C)C` [KDT0033, (1S,5R)-2-hydroxy-3-(3-methylbutanoyl)-5-(3-methylbutyl)-1-(4-methylpentanoyl)-4-oxocyclopent-2-en-1-yl 2,2-dimethylpropanoate], the inhibition at 12.5 µM was 97% in experiment [1]; more than 50% in experiment [2]; 95% in experiment [3]; approximately 90% in experiment [4]; 100% in [5]; 87% in experiment [7]. The Emax at 12.5 µM is not below 5% on PPARγ and less than 5% at PPARα. In addition, the “PPARα % GW590735 (20.6 nM)” value at PPARα is “no effect”.
As to `CC(C)=CC[C@H]1C(=O)C(C(=O)CC(C)C)=C(O)[C@]1(O)C(=O)/C=C/C(C)(C)O` [KDT0040, (4S,5R)-3,4-dihydroxy-4-[(2E)-4-hydroxy-4-methylpent-2-enoyl]-2-(3-methylbutanoyl)-5-(3-methylbut-2-en-1-yl)cyclopent-2-en-1-one], the inhibition at 12.5 µM in experiment [1] is 18%; in experiment [2] it was 26%; in experiment [3] it was less than 0%; in experiment [4], 25%; in experiment [5], 53%; in experiment [6] it was 54%. The same compound came in with an inhibition at 12.5 µM in [7] of less than 0%. For the same compound, the Emax at 12.5 µM at PPARγ and at PPARα was less than 5% each time.
In the case of `CN(CCOc1ccc(CC2SC(=O)NC2=O)cc1)c1ccccn1` (stereo not drawn) [Rosiglitazone, reference compound], the inhibition at 10 µM in experiment [1] (THP-1) was 24%; in experiment [2] (10 μM (rosiglitazone)) it was 6%; in experiment [3] (THP-1) it was less than 0%; in [4] (10 μM (rosiglitazone)), less than 20%; in [5] (THP-1), less than 0%; in experiment [6] (10 μM (rosiglitazone)), less than 0%. The compound further returned an inhibition at 10 µM in experiment [7] (THP-1) of less than 0%.
With `CC(C)CCC(=O)[C@@]1(OC(=O)CC(C)(C)C)C(O)=C(C(=O)CC(C)C)C(=O)[C@@H]1CCC(C)C` [KDT0034, (1S,5R)-2-hydroxy-3-(3-methylbutanoyl)-5-(3-methylbutyl)-1-(4-methylpentanoyl)-4-oxocyclopent-2-en-1-yl 3,3-dimethylbutanoate], the inhibition at 12.5 µM was 98% in [1]; more than 50% in [2]; 94% in experiment [3]; approximately 90% in [4]; 100% in [5]; 84% in [7]. Also, the Emax at 12.5 µM on PPARγ is 5%; on PPARα it was 9%. In addition, the “PPARα % GW590735 (20.6 nM)” value on PPARα is “dual PPARα and PPARγ agonists”.
